Measurements: ChEMBL document CHEMBL1149952, “Inhibition of human leukocyte elastase (HLE) by novel bicyclic -lactams” (Bioorg Med Chem Lett, 1993)

Key:
Neutrophil elastase = target: T1, Neutrophil elastase (Homo sapiens, UniProt P08246); assay: Inhibitory activity against human leukocyte elastase (HLE) was determined
T1 sequence (P08246 whole entry): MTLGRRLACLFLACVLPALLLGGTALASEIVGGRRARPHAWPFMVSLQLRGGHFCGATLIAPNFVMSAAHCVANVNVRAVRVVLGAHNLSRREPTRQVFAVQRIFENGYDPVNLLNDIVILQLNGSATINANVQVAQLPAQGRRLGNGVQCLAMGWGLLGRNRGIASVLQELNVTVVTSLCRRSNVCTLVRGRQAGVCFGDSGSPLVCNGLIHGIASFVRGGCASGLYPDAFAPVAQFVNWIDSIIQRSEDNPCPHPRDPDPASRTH

[1] = target: T2, Neutrophil elastase (Homo sapiens) (UniProt P08246)
T2 sequence (whole entry): T1 sequence (P08246 whole entry)
Description: Rate constant for the compound was determined against human leukocyte elastase (HLE)

[2] = target: T2, Neutrophil elastase (Homo sapiens); remark: listed apart in the source
Description: Alkaline hydrolysis constant for the compound was determined against human leukocyte elastase (HLE)

[3] = target: T2, Neutrophil elastase (Homo sapiens); remark: listed apart in the source
Description: Rate constant for the compound was determined (k2/ki) against human leukocyte elastase (HLE)

| Structure (SMILES) | Ki (Neutrophil elastase) [µM] | k off [1] [s⁻¹] | kOH [2] [M⁻¹ s⁻¹] | k on [3] [M⁻¹ s⁻¹] |
| --- | --- | --- | --- | --- |
| C[C@@H](O)[C@H]1C(=O)N2C/C(=C/C(=O)OC(C)(C)C)S[C@H]12 | 4 | – | – | – |
| C[C@@H](O)[C@H]1C(=O)N2S/C(=C/C(=O)OC(C)(C)C)S[C@H]12 | 1.5 | 0.0014 | 12 | 1000 |
| C[C@@H](O)[C@H]1C(=O)N2C/C(=C/C(=O)OC(C)(C)C)C[C@H]12 | > 100 | – | – | – |
| C[C@@H](O)[C@H]1C(=O)N2S/C(=C/C(=O)OC(C)(C)C)C[C@H]12 | 3.2 | – | – | – |
| C[C@@H](O)[C@@H]1C(=O)N2S/C(=C/C(=O)OC(C)(C)C)S[C@@H]12 | > 100 | – | 10.3 | – |
| C[C@@H](OC(=O)Cc1ccccc1)[C@H]1C(=O)N2S/C(=C/C(=O)OC(C)(C)C)S[C@H]12 | 0.4 | 0.0004 | 0.04 | 970 |
| C[C@@H](O)[C@H]1C(=O)N2S/C(=C\C(=O)OC(C)(C)C)S[C@H]12 | 12 | 0.002 | 3 | 150 |
